The record followed here is PubChem BioAssay (NCI).

Some test systems named below: MOLT-4 leukemia; HOP-92 NSCLC; NCI-H23 lung; SF-539 CNS; SW-620 colon; UACC-62 melanoma; SF-295 CNS; 786-0 renal; HCT-116 colon; SK-MEL-28 melanoma.
What all share (experiment): inhibition of tumour cell growth, NCI panel, 48 h

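How tested: cells in 96-well plates exposed to compound for 48 hours at five concentrations. Here, GI50 denotes the concentration required for 50% inhibition of growth. TGI: total growth inhibition.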

In the case of `COc1cc(N2C(=O)[C@H](O)C2c2ccc(SC)cc2)cc(OC)c1OC` (stereo partly drawn), the GI50 is 0.0334 µM with MOLT-4 leukemia; 71.4 µM in the assay on HOP-92 NSCLC; 0.0191 µM in the assay on NCI-H23 lung; below 0.01 µM in the assay on SF-539 CNS; below 0.01 µM in the assay with SW-620 colon; below 0.01 µM in the assay on UACC-62 melanoma. Also, the GI50 in the assay with SF-295 CNS, in the assay with 786-0 renal and with HCT-116 colon was below 0.01 µM throughout. Also, the TGI in the assay with MOLT-4 leukemia is 53.4 µM; in the assay with HOP-92 NSCLC, above 100 µM; with NCI-H23 lung it was above 100 µM; with SW-620 colon, above 100 µM; with UACC-62 melanoma it was above 100 µM; in the assay on SF-295 CNS it was 26.1 µM. The TGI in the assay with 786-0 renal was 55.8 µM; in the assay on HCT-116 colon, above 100 µM.

As to `CCOC(=O)C1C(=S)NC(=O)C1C#N` (stereo not drawn), the TGI in the assay with MOLT-4 leukemia, with HOP-92 NSCLC, in the assay with NCI-H23 lung, in the assay with SF-539 CNS, in the assay on SW-620 colon and in the assay on SK-MEL-28 melanoma was above 100 µM in each case. In addition, the TGI with UACC-62 melanoma, in the assay with SF-295 CNS and with 786-0 renal was above 100 µM each time.

In the case of `Cc1c(/C=N/N=C/c2[nH]c(C(=O)OC(C)(C)C)c(C)c2C)[nH]c(C(=O)OC(C)(C)C)c1C`, the TGI in the assay with MOLT-4 leukemia, in the assay with HOP-92 NSCLC, in the assay on NCI-H23 lung, in the assay on SF-539 CNS, in the assay on SW-620 colon and in the assay on UACC-62 melanoma was above 100 µM each time. Also, the TGI with SF-295 CNS, in the assay on 786-0 renal and with HCT-116 colon was above 100 µM throughout.

`O=C1OC(Cc2ccccc2)(N2CCCC2=O)C1c1ccccc1` (stereo not drawn): the TGI with MOLT-4 leukemia, in the assay with HOP-92 NSCLC, with NCI-H23 lung, in the assay on SW-620 colon, with SK-MEL-28 melanoma and in the assay on UACC-62 melanoma was above 100 µM throughout. For the same compound, the TGI with SF-295 CNS, in the assay on 786-0 renal and in the assay with HCT-116 colon was above 100 µM in each case.

As for `OCC1OC(n2cnc3c(N/N=C\c4ccccn4)ncnc32)C(O)C1O` (stereo not drawn), the GI50 in the assay on MOLT-4 leukemia was 0.0532 µM; with NCI-H23 lung it was 0.476 µM; in the assay with SF-539 CNS, 0.318 µM; in the assay with SW-620 colon, 0.422 µM; in the assay on SK-MEL-28 melanoma, 0.995 µM; in the assay on UACC-62 melanoma, 0.866 µM. Besides, the GI50 is 0.936 µM with SF-295 CNS, 0.256 µM in the assay with 786-0 renal and 0.11 µM in the assay with HCT-116 colon. For the same compound, the TGI in the assay on MOLT-4 leukemia is above 100 µM; with NCI-H23 lung it was above 100 µM; with SF-539 CNS, 2.27 µM; with SW-620 colon, above 100 µM; in the assay with SK-MEL-28 melanoma it was above 100 µM; in the assay on UACC-62 melanoma, 4.05 µM. In addition, the values for the TGI in the assay on SF-295 CNS, in the assay on 786-0 renal and in the assay with HCT-116 colon were 16.5 µM, 1.01 µM and 10.8 µM, respectively.

In the case of `COC(=O)C1(C)CCc2c(OC)ccc(OC)c2C1=O` (stereo not drawn), the TGI in the assay on MOLT-4 leukemia, with NCI-H23 lung, with SF-539 CNS, with SW-620 colon, with SK-MEL-28 melanoma and in the assay with UACC-62 melanoma was above 100 µM each time. Besides, the TGI with SF-295 CNS, in the assay on 786-0 renal and in the assay on HCT-116 colon was above 100 µM each time.

For the compound `C1CCC([PH+](C2CCCCC2)C2CCCCC2[PH+](C2CCCCC2)C2CCCCC2)CC1.[Au].[CH-]1CCCCC1CC1CCCC[N-]1` (stereo not drawn), the GI50 is 0.212 µM in the assay with HOP-92 NSCLC; 0.355 µM in the assay with SF-539 CNS; 0.371 µM with SW-620 colon; 0.433 µM in the assay on SK-MEL-28 melanoma; 0.249 µM in the assay with UACC-62 melanoma; 0.305 µM with SF-295 CNS. For the same compound, in the assay on 786-0 renal, the GI50 was 0.518 µM. Also, the TGI came out at 0.714 µM in the assay with HOP-92 NSCLC; 1.41 µM in the assay on SF-539 CNS; 1.41 µM in the assay on SW-620 colon; 1.94 µM in the assay with SK-MEL-28 melanoma; 1.28 µM with SF-295 CNS; 2.02 µM in the assay on 786-0 renal.

For `CCN(CC)CC1c2ccccc2C(CNc2ccccc2)N1C` (stereo not drawn), the TGI with MOLT-4 leukemia, in the assay on HOP-92 NSCLC, with NCI-H23 lung, with SW-620 colon, in the assay with SK-MEL-28 melanoma and in the assay with UACC-62 melanoma was above 100 µM each time. Also, the TGI in the assay with SF-295 CNS and with 786-0 renal was above 100 µM each time.

As to `CCOC(=O)C1=C(C)N(c2ccc(Cl)cc2)[C@]2(C#N)C(O)=C(Cl)C(Cl)=C(O)[C@]12C#N`, the GI50 in the assay on MOLT-4 leukemia is above 100 µM; in the assay on HOP-92 NSCLC it was 78.2 µM; in the assay with NCI-H23 lung it was above 100 µM; in the assay on SF-539 CNS, 8.61 µM; in the assay with SW-620 colon, 66.3 µM; with SK-MEL-28 melanoma it was above 100 µM. In addition, the GI50 in the assay on SF-295 CNS was above 100 µM; in the assay on 786-0 renal, above 100 µM; in the assay with HCT-116 colon, 90 µM. Also, the TGI in the assay on MOLT-4 leukemia is above 100 µM; in the assay on HOP-92 NSCLC it was above 100 µM; in the assay with NCI-H23 lung, above 100 µM; with SF-539 CNS it was 96.8 µM; in the assay with SW-620 colon, above 100 µM; in the assay on SK-MEL-28 melanoma, above 100 µM. Further, the TGI in the assay on SF-295 CNS, in the assay on 786-0 renal and with HCT-116 colon was above 100 µM in each case.

Regarding `O=C1/C(=C/c2ccccc2[N+](=O)[O-])Cc2ccccc21`, the GI50 was 2.92 µM in the assay on MOLT-4 leukemia; 1.22 µM in the assay with HOP-92 NSCLC; 2.2 µM in the assay with NCI-H23 lung; 2.15 µM with SF-539 CNS; 1.27 µM in the assay with SW-620 colon; 2.1 µM in the assay with SK-MEL-28 melanoma. The GI50 in the assay on UACC-62 melanoma is 1.64 µM; with 786-0 renal, 2.57 µM; in the assay on HCT-116 colon, 1.23 µM. The TGI in the assay on MOLT-4 leukemia was determined as 9.04 µM; with HOP-92 NSCLC, 3.36 µM; in the assay on NCI-H23 lung it was 7 µM; with SF-539 CNS it was 5.94 µM; with SW-620 colon, 3.22 µM; in the assay with SK-MEL-28 melanoma it was 4.2 µM. The TGI stood at 3.38 µM in the assay with UACC-62 melanoma, 6.9 µM in the assay with 786-0 renal and 2.57 µM in the assay with HCT-116 colon.
